Laboratory results as given in patent US8288378B2, “Phosphoinositide modulation for the treatment of neurodegenerative diseases” (The Trustees of Columbia University in the City of New York, priority 2006, dated 2012).

What was measured:
[1] = system: CA1 region of the hippocampus; test: Long-term potentiation in adult hippocampal slices (CA1, tetanic stimulation of Schaeffer collateral pathway); design: species or system mouse
Description: Long-term potentiation (LTP) was induced in the CA1 region of the hippocampus through tetanic stimulation of the Schaeffer collateral pathway.

[2] = system: PI4KIIα-overexpressing cells; test: Aβ42 levels in PI4KIIα-overexpressing cells; format: cell-based
Protocol: Since (20S)Rg3 potentiates PI4KIIα activity (conversion from PI to PIP), it was determined whether the increase in PI4KIIα activity exerts similar effects on Aβ42 generation as observed in the (20S)Rg3-treated cells. Overexpression of PI4KIIα leads to increased protein levels of PI4KIIα and increased PI 4-kinase activity as measured by lipid kinase assay. […] Thus, increased levels of the (20S)Rg3 target protein PI4KIIα may amplify the effects of the Aβ42-lowering activity of (20S)Rg3.

APP/PS1 mice = test: Radial-arm water-maze in APP/PS1 mice; format: in vivo, mouse; details: i.p., 10 mg/kg, three weeks, 3 month-old APP/PS1 mice
Protocol: Therefore experiments were performed to determine whether (20S)Rg3 can improve the memory impairments in an AD mouse model. (20S)Rg3 was administered for three weeks (i.p., 10 mg/kg) to 3 month-old APP/PS1 mice and age-matched littermate controls. Mice were then subjected to behavioral testing in the radial-arm water-maze paradigm (74).

[3] = system: PI4KIIα +/− ES-derived neurons; test: Aβ42 generation and PIP synthesis in PI4KIIα +/− ES cell-derived pyramidal neurons; format: cell-based, mouse
Description: Mouse embryonic stem (ES) cell-derived pyramidal neurons that harbor the heterozygote knockout of the PI4KIIα allele (PI4KIIα +/−; purchased from Sanger Institute Gene Trap Resource; http://www.sanger.ac.uk/PostGenomics/genetrap/) were then used to further study the role for PI4KIIα in Aβ42 generation in neurons. Differentiation and morphology of pyramidal neurons from PI4KIIα heterozygote (+/−) ES cells were indistinguishable from those from match wild-type ES cells (representative neuronal staining is shown in FIGS. 14A and B). […] Aβ42 generation was substantially elevated in the neurons derived from PI4KIIα +/−ES cells.

PIPK1γ = target: T1, PIPK1γ (Homo sapiens, UniProt O60331); test: PIPK1γ activity assay; format: biochemical; details: 50 μM
T1 construct: GST
Description: Thus, (20S)Rg3 serves as an activator of PI4KIIα, resulting in the increase in the steady-state levels of PIP and subsequently the levels of PIP2.

PI4KIIα = target: T2, PI4KIIα (Homo sapiens, UniProt Q9BTU6); test: PI4KIIα lipid kinase activity assay with TLC analysis; format: biochemical
T2 construct: made in house
Protocol: Lipid kinase assay and thin layer chromatography. In vitro lipid phosphorylation assays on post-nuclear supernatant of HEK293, Neuro2a or CHO cells expressing either WT or FAD mutant PS1 and PS2, were carried out as previously described (70). Briefly, 100 μg protein from the supernatant were mixed with 2.5 μl ATP (final: 50 μM), 2.5 μl CaCl2 (final: 50 μM), 27.0 μl EGTA-free kinase buffer (25 mM Hepes, 100 mM KC1, 2.5 mM MgCl2) and 0.5 μl gamma ATP (final 100 nCi/μl) and samples incubated at 37° C. for 15 min. Reaction products were extracted and analyzed by thin layer chromatography (TLC) silica plate (solvent: 64—acetone 30—methanol 24—acetic acid 32—water 14 (v/v)) and visualized by autoradiography.
Mammalian expression of a construct encoding either wild-type (IIα) or the kinase-dead mutant (IIα-KD) forms of PI4KIIα (HA-tagged) were transfected into CHO cells. The enzyme was immuno-isolated using anti-HA affinity beads from cell extracts. The purified PI4KIIα proteins were subjected to a lipid kinase activity assay and TLC analysis using PI as a substrate (FIG. 10C). PI4KIIα, but not the kinase-dead mutant, enhanced the incorporation of [γ32P]-ATP into PIP (FIG. 10C,D).

PC12 cells = test: PIP2 sensor GFP-PHPLCδ1 plasma membrane/cytosol localization; format: cell-based; details: for GFP-PHPLCδ1 probe localization: oAβ42, 2 μM ionomycin, Aβ42Rev
Protocol: Confocal microscopy. […] Cells have been analyzed after being treated for different time lengths: 0, 10 minutes, 30 minutes and 120 minutes. Cells were washed in phosphate buffer and fixed with 4 percent paraformaldehyde. Confocal z-stack images (0.5 μm) of PC12 cells were obtained using Nikon EZ-C1.2.30 confocal microscope, (×100) oil immersion objective. Quantification of GFP intensity was calculated using the ImageJ software: for each cell in a given image, a line intensity profile across the cell was obtained. The relative decrease in plasma membrane localization was calculated as the ratio between the plasma membrane fluorescence intensity and the average cytosolic fluorescence intensity. The average of the ratio was reported in the graph.
PC12 cells were cultured in RPMI media supplemented with 1 mM glutamine, 5% FBS, 10% horse serum and penicillin, streptomycin. The day before transfection, PC12 cells were split 50% and plated on poly-D-lysine coated coverslips. Cells were transfected with Lipofectamine 2000 as per the manufacturer's protocol with GFP-PHPLCδ1. After 16-24 hours, cells were treated as indicated for 30 minutes in conditioned media. Cells were then briefly washed in PBS and fixed for 20 minutes in 4% paraformaldehyde. Cells were then washed in 0.1M glycine and twice in PBS for 5 minutes each. Cells were mounted using Vectashield. Images were collected using a con-focal microscope and the plot profile was analyzed with ImageJ 1.37v. The ratio of the fluorescence profiles of the plasma membrane and the cytosol were calculated and deemed to represent translocation of the PIP2 probe GFP-PH-PLCδ1 (72).

mouse cortical neurons = test: Phosphoinositide / anionic phospholipid levels in cultured cortical neurons (HPLC with suppressed conductivity); details: for PIP2 levels after Ca2+ ionophore: 2 μM; for effect of Ca2+ chelation on oAβ42-induced PIP2 decrease: oAβ42 for 60 min, EGTA 2 mM
Protocol: HPLC Lipid Analysis. Cells grown in 15-cm^2 dishes were scraped in 0.75 ml ice-cold MeOH: 1M HCl (1:1) supplemented with 2 mM AlCl3. Lipids were then extracted and deacylated by incubation with 0.5 ml methylamine reagent (MeOH:40% methylamine in water:n-butanol:water 47:36:9:8) at 50° C. for 45 min. The aqueous phase was dried, resuspended in 0.5 ml of n-butanol: petroleum ether:ethyl formate (20:40:1), and extracted twice with an equal volume of water. Aqueous extracts were dried, resuspended in water, and subjected to anion-exchange HPLC on an Tonpac AS11-HC column (Dionex). Negatively charged glycerol head groups were eluted with a 1.5-86 mM KOH gradient and detected online by suppressed conductivity 75 in a Dionex Ion Chromatography system equipped with an ASRS-ultra II self-regenerating suppressor. Individual peaks were identified and peak areas were calculated using the Chromeleon software (Dionex). Using deacylated anionic phospholipids as standards, lipid masses were calculated and expressed as molar fractions of total anionic phospholipids present in the sample (see Ref. 69).
2-week-old, cultured mouse cortical neurons were incubated with three different Aβ42 preparations (monomers, soluble oligomers, and fibrils) at concentrations of 200 nM. The levels of PIP2 were measured by conductance-based HPLC quantitation.
This preparation contains a mixture of monomers, trimers and tetramers as well as traces of dimers and high molecular weight oligomers, as described previously. Potential effects of this preparation were investigated either after an acute (0-120 min) or a subchronic treatment (72 h). The levels of phosphoinositides as well as a variety of other anionic phospholipids were measured and quantified in neuronal extracts using HPLC combined with suppressed conductivity detection (69, 71).
Cell culture. […] Primary cultures from cortical neurons were generated from newborn mice as described (126). Briefly, cortices were dissected out, trypsinized for 45 minutes, and then dissociated with a Pasteur pipette and plated on poly-ornithine coated 10 mm dishes at a density of 25,000 cells/cm^2 in Neurobasal-A medium containing 1 mM kyneurenic acid to reduce enhanced synaptic transmission due to the high density of the cultures.
Lipid measurements. Cultures were scrapped on a methanol:1N HCl 1:1 buffer supplemented with 2 mM AlCl3. Ice-cold chloroform (0.4 ml) was then added, and samples were vortexed for 1 min. The solvent phase was washed with 1 ml. methanol:2 mM oxalic acid (1:0.9 vol/vol) and dried under a flow of nitrogen.

Aβ42 = target: T3, Aβ42 (Homo sapiens, UniProt P05067); test: Oligomerization process of Aβ42
T3 construct: Synthetic Aβ (1-42) peptide was purchased from American Peptide; purchased American Peptide (Sunnyvale, Calif.); host or cells: synthetic peptide

HeLa cells = test: Lipid raft fractionation and Western blot of PS1 C-terminal fragments; format: cell-based
[4] = system: N2a cells stably expressing human APP with the Swedish mutation; test: Aβ42/Aβ40 production in N2a cells stably expressing human APP with the Swedish mutation; format: cell-based; details: 6 hours treatment, read-out: EC50, inhibition of production of Aβ42 as well as Aβ40
Protocol: N2a cells stably expressing human APP with the Swedish mutation were grown in DMEM-supplemented with 50% Opti-MEM, 10% FBS, penicillin, streptomycin, and G418. Cells were grown to 80-90% confluence and treated for 6 hours with the drugs as indicated in 900 μl media. The conditioned media was harvested and centrifuged for 15 minutes at 14,000 rpm in a table top Eppendorf centrifuge 5417R. The adherent cells were washed two times with ice cold PBS and lysed in 100 μl super IP buffer (10 mM Tris Cl, pH, 7.4, 150 mM NaCl, 2 mM EDTA, 1% Triton X-100, 0.25% NP-40, protease inhibitors). Cell lysates were scraped and incubated for 15 minutes on ice before centrifugation at 14,000 rpm in a table-top Eppendorf centrifuge 5417R. Cleared conditioned media and lysates were stored at −80° C. until use. Aβ 42 and Aβ40 were quantified with the commercially available kit from Biosource as indicated in the protocol. Protein concentration of the cell lysate was determined using the BCA assay from Pierce.
KU-55933 is a small molecule inhibitor of ATM kinase as well as PI3K family members (FIG. 22). […] Aβ 42 and Aβ40 were quantified with the commercially available kit from Biosource as indicated in the protocol. Protein concentration of the cell lysate was determined using the BCA assay from Pierce.

[5] = previous studies (refs 113, 114); cited from earlier work
[6] = system: N2a cells stably expressing APP harboring the Swedish mutation; test: Caspase 3 cleavage Western blot; format: cell-based; details: 6 hours; concentrations which decreased Aβ42 generation
Protocol: Western blot analysis of full length APP and caspase3 was conducted on 30 μg of lysate collected as described above from N2a cells stably expressing APP harboring the Swedish mutation. Cells were treated for 6 hours with KU-55933 at concentrations indicated. APP was detected using the LN27 antibody from Zymed and caspase 3 full length and cleavage product were probed using the caspase 3 antibody from Cell Signaling Technology.

T2 sequence (Q9BTU6 whole entry): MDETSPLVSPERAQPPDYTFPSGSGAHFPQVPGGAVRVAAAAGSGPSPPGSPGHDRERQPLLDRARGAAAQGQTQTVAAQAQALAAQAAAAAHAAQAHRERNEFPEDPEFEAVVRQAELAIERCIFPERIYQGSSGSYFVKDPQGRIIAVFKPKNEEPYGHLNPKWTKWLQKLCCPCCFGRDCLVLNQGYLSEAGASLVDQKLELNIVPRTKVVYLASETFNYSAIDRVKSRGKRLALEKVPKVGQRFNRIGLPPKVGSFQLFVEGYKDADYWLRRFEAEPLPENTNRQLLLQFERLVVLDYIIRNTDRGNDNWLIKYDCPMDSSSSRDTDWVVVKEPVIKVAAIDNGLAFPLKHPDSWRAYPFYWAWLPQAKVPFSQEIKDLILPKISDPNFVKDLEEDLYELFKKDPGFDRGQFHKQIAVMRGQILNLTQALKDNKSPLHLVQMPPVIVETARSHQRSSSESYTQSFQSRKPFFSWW
T1 sequence (O60331 whole entry): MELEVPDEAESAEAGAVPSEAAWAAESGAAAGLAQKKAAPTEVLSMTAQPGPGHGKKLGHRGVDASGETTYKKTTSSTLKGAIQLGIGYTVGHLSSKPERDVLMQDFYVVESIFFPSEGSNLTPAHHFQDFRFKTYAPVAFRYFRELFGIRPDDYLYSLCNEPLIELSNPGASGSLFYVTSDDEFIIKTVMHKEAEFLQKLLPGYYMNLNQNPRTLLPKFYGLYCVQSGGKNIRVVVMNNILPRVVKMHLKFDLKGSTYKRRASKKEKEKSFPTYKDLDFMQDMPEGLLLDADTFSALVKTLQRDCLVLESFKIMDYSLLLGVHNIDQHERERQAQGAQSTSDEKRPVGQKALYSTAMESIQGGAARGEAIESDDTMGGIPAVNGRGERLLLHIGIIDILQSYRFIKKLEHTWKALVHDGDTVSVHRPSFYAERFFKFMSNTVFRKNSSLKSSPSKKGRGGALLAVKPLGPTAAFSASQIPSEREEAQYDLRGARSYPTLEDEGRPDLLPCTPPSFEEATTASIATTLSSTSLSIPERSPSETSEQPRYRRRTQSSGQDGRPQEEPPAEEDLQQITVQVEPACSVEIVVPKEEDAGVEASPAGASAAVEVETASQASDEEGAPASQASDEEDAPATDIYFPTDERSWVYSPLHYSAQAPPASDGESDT
T3 sequence (P05067 672-713 limits assumed): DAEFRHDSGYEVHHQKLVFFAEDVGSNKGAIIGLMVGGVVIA

Compound: CC(C)=CCC[C@](C)(O)[C@H]1CC[C@]2(C)[C@@H]1[C@H](O)C[C@@H]1[C@@]3(C)CC[C@H](O[C@@H]4O[C@H](CO)[C@@H](O)[C@H](O)[C@H]4O[C@@H]4O[C@H](CO)[C@@H](O)[C@H](O)[C@H]4O)C(C)(C)[C@@H]3CC[C@]12C [(20S)Rg3]
- LTP on co-incubation with Aβ oligomers ([1]; 10 μM): resulted in normal LTP
- Aβ42 reduction [2]: conferred additive effects on Aβ42 reduction
- spatial working memory deficits (APP/PS1 mice): dramatically improved spatial working memory deficits
- ability to reduce Aβ42 ([3]; PI4KIIα +/− ES-derived neurons): no longer able to reduce Aβ42
- compound-induced PIP synthesis ([3]; PI4KIIα +/− clonal lines AC37 and AD14): substantially reduced
- activity of PIPK1γ (PIPK1γ): did not confer any detectable effects
- PI4KIIα activity (PI4KIIα; 50 μM with purified enzyme): enhanced PI4KIIα activity in a dose-dependent manner
- PIP and PIP2 formation with both PI4KIIα and PIPK1γ (PI4KIIα; both enzymes incubated with compound): led to an increase of both PIP and PIP2
- Aβ oligomer-induced loss of plasma membrane fluorescence (PC12 cells; co-incubation with Aβ oligomers): prevented the loss of the plasma membrane fluorescence
- steady-state levels of PIP and PIP2 (mouse cortical neurons; 100 μM): increased steady-state levels of both PIP and PIP2
- Aβ42 oligomer-induced PIP2 reduction, pre-incubation (mouse cortical neurons; cells pre-incubated with compound): blocked efficiently
- oAβ42-induced increase in PA levels (mouse cortical neurons; cultured neurons): inhibited the increase in PA levels
- Aβ42 oligomer-induced reduction in PIP2 levels (mouse cortical neurons; treatment / co-treatment of cultured neurons): inhibited the reduction in PIP2 levels
- effect on oligomerization process of Aβ42 (Aβ42): no effects on the oligomerization process of Aβ42
- lipid raft-associated PS1-CTF levels (HeLa cells; HeLa cells): significantly reduced
- total PS-CTF levels (HeLa cells; HeLa cells): unchanged

Compound: CNc1ccc2oc(C[C@H]3O[C@@]4(CC[C@H]3C)O[C@H]([C@H](C)C(=O)c3ccc[nH]3)[C@H](C)C[C@H]4C)nc2c1C(=O)O [A23187]
- PIP2 levels after Ca2+ ionophore (mouse cortical neurons): caused PIP2 levels to decrease

Compound: CC(=O)OCOC(=O)CN(CC(=O)OCOC(C)=O)c1ccccc1OCCOc1ccccc1N(CC(=O)OCOC(C)=O)CC(=O)OCOC(C)=O [BAPTA-AM]
- effect of Ca2+ chelation on oAβ42-induced PIP2 decrease (mouse cortical neurons): blocked the action of oAβ42
- increase in the levels of PtdIns(4,5)P2 (mouse cortical neurons; vehicle-treated and oAβ42-treated cortical neurons): 2 fold

Compound: O=C(O)CN(CCOCCOCCN(CC(=O)O)CC(=O)O)CC(=O)O [EGTA]
- effect of Ca2+ chelation on oAβ42-induced PIP2 decrease (mouse cortical neurons): prevented oAβ42 from decreasing PIP2 levels

Compound: O=c1cc(-c2cccc3c2Sc2ccccc2S3)oc(N2CCOCC2)c1 [KU-55933]
- EC50 [4]: 3.5 µM
- cytotoxicity [5]: found not to be cytotoxic
- depletion of PIP2 caused by Aβ42 oligomers (PC12 cells; 30 minutes, concentration comparable to EC50 for Aβ42): rescued the depletion of PIP2
- caspase 3 cleavage [6]: did not induce caspase 3 cleavage

Compound: COc1ccc2c(c1)CC[C@@H]1[C@@H]2CC[C@]2(C)[C@@H](NCCCCCCN3C(=O)C=CC3=O)CC[C@@H]12 [U73122]
- PIP2 levels on oAβ42 treatment in presence of PLC inhibitor (PC12 cells; oAβ42 60 min, inhibitor 0.5 μM): PIP2 levels remained unaffected by oAβ42

Compound: C[C@H](CCC(=O)O)C[C@H](C)C[C@H](C)C(=O)/C=C(\O)[C@H](C)C[C@H](C)C/C=C/[C@@H](C)[C@@H](O)[C@@H](C)[C@@H](O)C[C@@H]1CC[C@@](C)([C@H]2CC[C@@](C)([C@@H](C)O)O2)O1 [ionomycin]
- GFP-PHPLCδ1 probe localization (PC12 cells): mimicked
- PIP2 levels after Ca2+ ionophore (mouse cortical neurons): caused PIP2 levels to decrease

Compound: CSc1ccc(/C=C2/C(C)=C(CC(=O)O)c3cc(F)ccc32)cc1 [sulindac sulfide]
- association of PS1 fragments with lipid rafts (HeLa cells): did not confer any effects

Compound: oAβ42: crude oligomer preparation made from synthetic Aβ42 peptides
- effect on LTP ([1]; control (Synj1+/+) slices): partially impaired LTP
- GFP-PHPLCδ1 probe localization (PC12 cells): significant disappearance of the probe from the plasma membrane
- ATP levels (mouse cortical neurons; 200 nM): normal
- effect on PA levels (mouse cortical neurons; 200 nM, 2-week-old cultured mouse cortical neurons): up-regulated
- number of apoptotic nuclei (mouse cortical neurons; 3-day treatment, versus vehicle): comparable or slightly less
- amount of pyknosis (mouse cortical neurons; 3-day treatment, versus vehicle-treated neurons): undistinguishable from that occurring in vehicle-treated neurons
- levels of PtdA (mouse cortical neurons; crude oligomer preparation of synthetic Aβ42, after 120 min): approximately 130 % of control
